EP2746260A1, “Substituted [1,2,4]triazole and imidazole compounds” (BASF SE, priority 2012, dated 2014)

Key:
Pyricularia oryzae = type: cell-based; conditions: relative growth vs compound-free control (100%), 405 nm, 7 days after inoculation
Botrytis cinerea [1] = experiment: Activity against the grey mold in the microtiterplate test (Botrci); type: cell-based; conditions: relative growth vs compound-free control (100%), 405 nm, 7 days after inoculation
Phakopsora pachyrhizi = experiment: Protective control of soy bean rust on soy beans (Phakpa P1), green house; type: in vivo; conditions: 150ppm spray, inoculated 1 day after treatment, % diseased leaf area, untreated control 70
Puccinia recondita = experiment: Preventative control of brown rust on wheat (Puccrt P7), green house; type: in vivo; conditions: 16ppm spray, inoculated seven days after treatment, % diseased leaf area, untreated control 90
Method: (§1) The stock solution were prepared: a mixture of acetone and/or dimethylsulfoxide and the wetting agent/emulsifier Wettol, which is based on ethoxylated alkylphenoles, in a relation (volume) solvent-emulsifier of 99 to 1 was added to 25 mg of the compound to give a total of 5 ml. Water was then added to total volume of 100 ml. This stock solution was diluted with the described solvent-emulsifier-water mixture to the given concentration.
5. Preventative control of brown rust on wheat caused by Puccinia recondita (Puccrt P7)
The first two developed leaves of pot-grown wheat seedling were sprayed to run-off with an aqueous suspension, containing the concentration of active ingredient or their mixture as described below. Seven days later the plants were inoculated with spores of Puccinia recondita. To ensure the success the artificial inoculation, the plants were transferred to a humid chamber without light and a relative humidity of 95 to 99 % and 20 to 24· C for 24 h. Then the trial plants were cultivated for 6 days in a greenhouse chamber at 20-24 °C and a relative humidity between 65 and 70 %. The extent of fungal attack on the leaves was visually assessed as % diseased leaf area.

Botrytis cinerea [2] = experiment: Preventative fungicidal control of Botrytis cinerea on leaves of green pepper (Botrci P1), green house; type: in vivo; conditions: 150ppm spray, inoculated next day, % diseased leaf area after 5 days, untreated control 100
Method: as §1
2. Preventative fungicidal control of Botrytis cinerea on leaves of green pepper (Botrci P1)
Young seedlings of green pepper were grown in pots to the 4 to 5 leaf stage. These plants were sprayed to run-off with an aqueous suspension, containing the concentration of active ingredient or their mixture mentioned in the table below. The next day the plants were inoculated with an aqueous biomalt solution containing the spore suspension of Botrytis cinerea. Then the plants were immediately transferred to a humid chamber. After 5 days at 22 to 24· C and a relative humidity close to 100 % the extent of fungal attack on the leaves was visually assessed as % diseased leaf area.

Botrytis cinerea [3] = experiment: Long lasting control of Botrytis cinerea on leaves of green pepper (Botrci P7), green house; type: in vivo; conditions: 16ppm spray, inoculated 7 days after treatment, % diseased leaf area after 5 days, untreated control 90
Method: as §1
3. Long lasting control of Botrytis cinerea on leaves of green pepper (Botrci P7)
Young seedlings of green pepper were grown in pots to the 4 to 5 leaf stage. These plants were sprayed to run-off with an aqueous suspension, containing the concentration of active ingredient or their mixture mentioned in the table below. The plants were then cultivated in the greenhouse for 7 days and then inoculated with an aqueous biomalt solution containing the spore suspension of Botrytis cinerea. Then the plants were immediately transferred to a humid chamber. After 5 days at 22 to 24· C and a relative humidity close to 100 % the extent of fungal attack on the leaves was visually assessed as % diseased leaf area.

Septoria tritici = experiment: Preventative control of leaf blotch on wheat (Septtr P1), green house; type: in vivo; conditions: 150ppm spray, inoculated following day, % diseased leaf area after 4 weeks, untreated control 100
Method: as §1
4. Preventative control of leaf blotch on wheat caused by Septoria tritici (Septtr P1)
Leaves of pot-grown wheat seedling were sprayed to run-off with an aqueous suspension of the active compound or their mixture, prepared as described. The plants were allowed to air-dry. At the following day the plants were inoculated with an aqueous spore suspension of Septoria tritici. Then the trial plants were immediately transferred to a humid chamber at 18-22°C and a relative humidity close to 100 %. After 4 days the plants were transferred to a chamber with 18-22°C and a relative humidity close to 70 %. After 4 weeks the extent of fungal attack on the leaves was visually assessed as % diseased leaf area.

OC(Cc1ccccc1Cl)(Cn1ncnc1S)C1(Cl)CC1 (stereo not shown) [Comparative 1, reference compound]
Growth (%) at 8ppm Pyrior (Pyricularia oryzae): 33%

CC(c1ccccc1Cl)C(O)(C(C)n1ncnc1S)C1(Cl)CC1 (stereo not shown) [Compound I-7]
Growth (%) at 8ppm Pyrior (Pyricularia oryzae): 0% | Growth (%) at 31ppm Pyrior (Pyricularia oryzae): 0% | Growth (%) at 31ppm Botrci (Botrytis cinerea [1]): 0%

CC(n1cncn1)C(O)(Cc1ccc(Oc2ccc(Cl)cc2)cc1Cl)C1(Cl)CC1 (stereo not shown) [Compound I-4]
Growth (%) at 31ppm Pyrior (Pyricularia oryzae): 6% | Disease (%) at 150ppm Phakpa P1 (Phakopsora pachyrhizi): 15%

CC(n1cncn1)C(O)(Cc1ccccc1Cl)C1(Cl)CC1 (stereo not shown) [Compound I-3]
Growth (%) at 31ppm Pyrior (Pyricularia oryzae): 0% | Disease (%) at 16ppm Puccrt P7 (Puccinia recondita): 3% | Disease (%) at 150ppm Botrci P1 (Botrytis cinerea [2]): 0% | Disease (%) at 16ppm Botrci P7 (Botrytis cinerea [3]): 15% | Disease (%) at 150ppm Phakpa P1 (Phakopsora pachyrhizi): 0% | Growth (%) at 31ppm Botrci (Botrytis cinerea [1]): 1% | Disease (%) at 150ppm Septtr P1 (Septoria tritici): 3%

OC(Cc1ccccc1Cl)(Cn1cncn1)C1(Cl)CC1 (stereo not shown) [Comparative 2, reference compound]
Disease (%) at 16ppm Puccrt P7 (Puccinia recondita): 50% | Disease (%) at 16ppm Botrci P7 (Botrytis cinerea [3]): 30%

CC(n1ncnc1S)C(O)(Cc1ccccc1Cl)C1(Cl)CC1 (stereo not shown) [Compound I-6]
Growth (%) at 8ppm Pyrior (Pyricularia oryzae): 6% | Growth (%) at 31ppm Pyrior (Pyricularia oryzae): 0% | Disease (%) at 150ppm Phakpa P1 (Phakopsora pachyrhizi): 0%

CC(n1cncn1)C(O)(Cc1ccc(-c2ccc(Cl)cc2)cc1Cl)C1(Cl)CC1 (stereo not shown) [Compound I-5]
Growth (%) at 31ppm Pyrior (Pyricularia oryzae): 10%

CC(c1ccccc1Cl)C(O)(C(C)n1cncn1)C1(Cl)CC1 (stereo not shown) [Compound I-1, 3-(1-Chlorocyclopropyl)-2-(2-chlorophenyl)-4-(1,2,4-triazol-1-yl)pentan-3-ol]
Growth (%) at 31ppm Pyrior (Pyricularia oryzae): 0% | Disease (%) at 150ppm Phakpa P1 (Phakopsora pachyrhizi): 10% | Growth (%) at 31ppm Botrci (Botrytis cinerea [1]): 19%
